Several values for one entry are separate records, joined by “and”; a condition that tells them apart may be missing. Identical values can stand only once. Where no end group is shown, it is not given here. The star is where a group is joined. Palmitoyl = CCCCCCCCCCCCCCCC(=O)*
Columns and labels:
Type in all cases: in vivo, mouse
C57BL mice = assay: G-CSF induced splenomegaly in C57BL and C57BL hemophilic mice; conditions: for effect on G-CSF induced splenomegaly: C57BL mice, daily treatment plus G-CSF, versus G-CSF alone; for average spleen weight: G-CSF treated
Description: 8 to 10 week old immune competent C57BL mice and C57BL hemophilic (C57BL Hem F8) mice were used for the G-CSF studies.
(§1) 8-10 weeks old NOD-SCID or Factor VIII KO SCID mice were treated by daily subcutaneous injections of recombinant human G-CSF (Neupogen, Amgen) at a dose of 250 μg per kg per day for 7 days. To determine the spleen weight, 7 days after the initiation of G-CSF treatment, mice were euthanized and spleens were harvested.
Enoxaparine (Clexane 20 mg/0.2 ml, Rhone-poulenc, France) was used at a dosage of 200 μg/mouse (dissolved in PBS) and 0.2 ml of the final solution was injected subcutaneously into each mouse once a day.
Dabigatran etexilate (Boehringer Ingelheim Pharma KG, Biberach, Germany) was administrated orally at dosage of 30 mg/kg. Final volume of 0.3 ml dissolved in DDW was administrated daily.
The palmitoylated peptides: pal-RCLSSSAVANRS (PAR1 antagonist, SEQ ID NO: 15) and pal-SGRRYGHALR (PAR4 antagonist, SEQ ID NO: 16) were prepared by solid-phase peptide synthesis using in situ neutralization/HBTU by Hadar Biotec, Israel.
The mice were treated by vehicle control, or with PAR1 antagonist or PAR4 antagonist at 0.5 mg/kg, intraperitonealy on daily basis.

[1] = test system: E42 pig liver precursor tissue implanted in Rag-/- mice; assay: Embryonic pig liver implant growth in Rag-/- mice, pig albumin serum ELISA
Description: In addition, immune deficient RAG^−/− mice or RAG^−/− FVIII KO mice were used as hosts for the transplantation studies. To obtain RAG^−/− hemophilic mice (designated RAG^−/− FVIII KO mice), FVIII mutation was introduced into RAG^−/− mice, as was previously described. All mice were kept in small cages (up to five animals per cage) and fed sterile food.
Pig embryos were obtained from the Lahav Institute of Animal Research (Kibbutz Lahav, Israel). […] Warm ischemia time was less than 10 minutes and the embryos were transferred to cold PBS. Spleen, pancreas and liver precursors for transplantation were extracted under a light microscope and were kept in sterile conditions at 4° C. in RPMI 1640 (Biological Industries, Beit HaEmek, Israel) prior to transplantation. Cold ischemia time until transplantation was less than 2 hours.
Transplantation of pig precursors was completed as previously described [Dekel, B. et al., Nat Med (2003) 9, 53-60]. Briefly, transplantation of the embryonic precursors was performed under general anesthesia (2.5% 2,2,2-Tribromoethanol, 97% in PBS, 10 ml/kg intraperitoneally). […]
Pig albumin in mouse serum was measured by a standard ELISA procedure using primary goat anti-pig albumin antibody (human, mouse, and bovine absorbed), affinity purified, and secondary pig specific horseradish-peroxidase conjugated antibody (Catalog Nos. A100-210A and A100-210P, Bethyl). […]

[2] = test system: NOD-SCID or Factor VIII KO SCID mice; assay: G-CSF induced splenomegaly in NOD-SCID and Factor VIII KO SCID mice; conditions: for average spleen weight: G-CSF 250 μg per kg per day s.c. for 7 days
Description: 8-10 week old immune deficient NOD-SCID or factor VIII KO-SCID mice (Weizmann Institute Animal Breeding Center, Rehovot, Israel) were used for G-CSF studies. To obtain immunodeficient hemophilic mice (designated factor VIII KO-SCID), FVIII-deficient mice were crossed with SCID mice, as was previously described [Aronovich, A. et al., Proc Natl Acad Sci USA (2006) 103: 19075-80].
as §1
Hu Factor VIII was infused into Factor VIII KO SCID mice by osmotic pumps (Azlet pump model 1003D, 1 μl/hr rate, 100 μl total capacity with a continuous delivery for 3 days). Thus, 60 IU Hu factor VIII was dissolved in 100 μl PBS and delivered by the 1003D pump for 3 days. The pump was administrated into the peritoneal cavity. After 3 days, a similar new pump was administrated. Initial concentration of the Hu Factor VIII was calibrated based on Hu Factor VIII half life and its clearance rate [Mordenti, J. et al., Toxicol Appl Pharmacol (1996) 136: 75-81].

CCCCCCOC(=O)NC(=N)c1ccc(NCc2nc3cc(C(=O)N(CCC(=O)OCC)c4ccccn4)ccc3n2C)cc1 [Dabigatran, Dabigatran etexilate] was tested. Which “effect on G-CSF induced splenomegaly” value (C57BL mice) did it give?
The value was “marked enhancement”.

And the “embryonic pig liver growth (pig albumin serum levels)” value ([1]; Rag-/- mice, Dabigatran etexilate 30 mg/kg orally daily)?
Its value is “enhancement”.

For “pal-SGRRYGHALR (Palmitoyl-SGRRYGHALR) [PAR4 antagonist, palmitoylated peptide, PAR4 antagonist]”, which “effect on G-CSF induced splenomegaly” value (C57BL mice) is on record?
The value was “significantly enhanced”.

Which “effect on G-CSF induced splenomegaly” value (C57BL mice) does the source give for “pal-RCLSSSAVANRS (Palmitoyl-RCLSSSAVANRS) [PAR1 antagonist, palmitoylated peptide, PAR1 antagonist]” here?
Its value is “significantly enhanced”.

How did the “effect on G-CSF induced splenomegaly” value (C57BL mice) turn out when Enoxaparine [Clexane] was run?
Its value is “marked enhancement”.

What about the “total average weight of the spleens” value (C57BL mice; C57BL/6 mice, following G-CSF induction, Clexane 200 μg/mouse s.c. once a day) of the same molecule?
Its value is 266 ± 91 mg.

What about the “pig albumin blood levels” value ([1]; non-hemophilic recipients, days 7 and 21 post transplant, versus control recipients not receiving Clexane) of the same molecule?
The value was “marked enhancements”.

B1: G-CSF: recombinant human G-CSF (Neupogen, Amgen) (protein, chains of the INN, looked up)
chain: MTPLGPASSLPQSFLLKCLEQVRKIQGDGAALQEKLCATYKLCHPEELVLLGHSLGIPWAPLSSCPSQALQLAGCLSQLHSGLFLYQGLLQALEGISPELGPTLDTLQLDVADFATTIWQQMEELGMAPALQPTQGAMPAFASAFQRRAGGVLVASHLQSFLEVSYRVLRHLAQP
B1 was tested. Which average spleen weight (C57BL mice; C57BL hemophilic (Hem F8, Factor VIII KO) mice) did it give?
The average spleen weight was 256.03 ± 149.86 mg and 261 ± 154 mg.

What about the average spleen weight (C57BL mice; non-hemophilic C57BL mice) of the same molecule?
The average spleen weight was 181.22 ± 61.43 mg.

What about the average spleen weight ([2]; Factor VIII KO SCID mice) of the same molecule?
Its average spleen weight is 314.89 ± 121.51 mg.

What about the “average spleen weight, Factor VIII KO SCID versus non-hemophilic mice” value ([2]; G-CSF treated mice) of the same molecule?
The value was 2.6 fold.

What about the average spleen weight ([2]; non-hemophilic NOD-SCID mice) of the same molecule?
Its average spleen weight is 118.5 ± 25.56 mg.
